Assays:
[1] = Heavy metal removal ability test in contaminated soil (ICP-MS), nickel; details: for Nickel (Ni) Adsorption amount: contaminated soil; for Nickel (Ni) Adsorption rate: relative to EDTA control
Experimental: (§1) (1) Preparation of Soil Contaminated with Heavy Metal
(§2) After collecting and pulverizing uncontaminated soil, fine particles obtained by using a mesh were mixed with the aqueous heavy metal solution to prepare soil samples contaminated with heavy metals.
(§3) Each 3 ml of the prepared aqueous solution was added to a soil sample contaminated with heavy metals and mixed for 5 minutes.
(§4) 50 ml of distilled water was added to the contaminated soil mixed with the aqueous solution for restoring soil, stirred for 20 minutes, and settled for 1 hour, and a supernatant was prepared as a sample solution.
(§5) The prepared sample solution was analyzed for the heavy metal component using an Inductively Coupled Plasma Mass Spectrometer (ICP-MS) (Xseries™ 2, Thermo Fisher Scientific, UK).
(§6) Adsorption rate of heavy metals (%)=(Adsorption amount of Embodiment/Adsorption amount of Control)×100 Equation 1

[2] = Heavy metal removal ability test in contaminated soil around a factory (WAK-Me test kit); details: 1.0 wt % aqueous solution, colour comparison test kit
Experimental: The contaminated soil around the factory in the industrial complex was collected, pulverized, and meshed to prepare fine particles of soil samples.
Each 3 ml of aqueous solutions for restoring soil was added to soil samples and mixed for 5 minutes.

[3] = Heavy metal removal ability test in contaminated soil (ICP-MS), cadmium; details: for Cadmium (Cd) Adsorption amount: contaminated soil; for Cadmium (Cd) Adsorption rate: relative to EDTA control
Experimental: as §1, §2, §3, §4, §5, §6

[4] = Heavy metal removal ability test in contaminated soil (ICP-MS), arsenic; details: for Arsenic (As) Adsorption amount: contaminated soil; for Arsenic (As) Adsorption rate: relative to EDTA control
Experimental: as §1, §2, §3, §4, §5, §6

[5] = Formaldehyde (formalin) removing ability test (GC); details: 2.0% formaldehyde solution, 3 molar equivalents of compound, room temperature; for Formaldehyde GC Area, 30 min: after 30 min; for Formaldehyde GC Area, 180 min: after 180 min; for Formaldehyde GC Area, Initial: initial state
[6] = system: human skin; experiment: Skin irritation test of active ingredient (patch method, CTFA guidelines); format: in vivo; details: 24 h patch; for Test result (number of subject) (+) / Test result (number of subject) (++) / Test result (number of subject) (±) / Test result (number of subject) (−): 20 people; for Test result (number of subject) (+): (+) apparent reddening; for Test result (number of subject) (++): (++) more reddened and swollen; for Test result (number of subject) (±): (±) slightly reddish; for Test result (number of subject) (−): (−) no erythema
Experimental: A filter paper disk was placed in an 8 mm diameter, 10 panels of pin chamber.
After 24 hours, the pin chamber was removed, and skin conditions were visually observed. The degree and grade for skin irritation were calculated according to the following Equation 2, and the results are shown in Table 4 below.
[Criteria for Skin Irritation]
(−): No erythema or particularly no symptoms; (±): slightly reddish than the periphery; (+): Apparent reddening than periphery; (++): More reddened and swollen than periphery.
[Grade for Skin Irritation]
Degree of irritation 0-0.1: Grade I (unstimulated);
Degree of irritation 0.11-0.3: Grade II (weakly stimulated);
Degree of irritation 0.31-0.5: Grade III (moderately stimulated);
Degree of irritation 0.51 or more: Grade IV (strongly stimulated)

SMILES | Nickel (Ni) Adsorption amount ([1]; content 0.5% aqueous solution) [ppm] | Total amount (Cu, Zn, Mn, Ni, Cd) [2] [ppm] | Cadmium (Cd) Adsorption amount ([3]; content 0.5% aqueous solution) [ppm] | Arsenic (As) Adsorption amount ([4]; content 0.5% aqueous solution) [ppm] | Nickel (Ni) Adsorption rate ([1]; content 0.5%) [%] | Nickel (Ni) Adsorption amount ([1]; content 1.0% aqueous solution) [ppm] | Nickel (Ni) Adsorption rate ([1]; content 1.0%) [%] | Nickel (Ni) Adsorption amount ([1]; content 2.0% aqueous solution) [ppm] | Nickel (Ni) Adsorption rate ([1]; content 2.0%) [%] | Formaldehyde GC Area, 30 min [5] [mAU*min] | Formaldehyde GC Area, 180 min [5] [mAU*min] | Formaldehyde GC Area, Initial [5] [mAU*min] | Cadmium (Cd) Adsorption rate ([3]; content 0.5%) [%] | Cadmium (Cd) Adsorption amount ([3]; content 1.0% aqueous solution) [ppm] | Cadmium (Cd) Adsorption rate ([3]; content 1.0%) [%] | Cadmium (Cd) Adsorption amount ([3]; content 2.0% aqueous solution) [ppm] | Cadmium (Cd) Adsorption rate ([3]; content 2.0%) [%] | Arsenic (As) Adsorption rate ([4]; content 0.5%) [%] | Arsenic (As) Adsorption amount ([4]; content 1.0% aqueous solution) [ppm] | Arsenic (As) Adsorption rate ([4]; content 1.0%) [%] | other results
O=C(O)CN(CCN(CC(=O)O)CC(=O)O)CC(=O)O [Control (EDTA), ethylenediaminetetraacetic acid, reference compound] | 49 | 2.0 | 41 | 25 |  |  |  |  |  |  |  |  |  |  |  |  |  |  |  |  | 
C1CNCCNCCNCCN1 [Cyclen, 1,4,7,10-tetraazacyclododecane] | 91 | ≤5 | 69 | 42 | 186 | 93 | 190 | 98 | 200 | 0.181 | 0 | 0.305 | 168 | 74 | 180 | 81 | 198 | 168 | 49 | 196 | Arsenic (As) Adsorption amount ([4]; content 2.0% aqueous solution): 51 ppm; Arsenic (As) Adsorption rate ([4]; content 2.0%): 204%; Test result (number of subject) (+) ([6]; content 0.1 wt %): 0; Test result (number of subject) (++) ([6]; content 0.1 wt %): 0; Test result (number of subject) (±) ([6]; content 0.1 wt %): 0; Test result (number of subject) (−) ([6]; content 0.1 wt %): 20; Degree of irritation ([6]; content 0.1 wt %): 0; Grade for skin irritation ([6]; content 0.1 wt %): I (Degree of irritation 0-0.1: Grade I (unstimulated)); Test result (number of subject) (+) ([6]; content 0.5 wt %): 0; Test result (number of subject) (++) ([6]; content 0.5 wt %): 0; Test result (number of subject) (±) ([6]; content 0.5 wt %): 0; Test result (number of subject) (−) ([6]; content 0.5 wt %): 20; Degree of irritation ([6]; content 0.5 wt %): 0; Grade for skin irritation ([6]; content 0.5 wt %): I (Degree of irritation 0-0.1: Grade I (unstimulated)); Test result (number of subject) (+) ([6]; content 1.0 wt %): 1; Test result (number of subject) (++) ([6]; content 1.0 wt %): 0; Test result (number of subject) (±) ([6]; content 1.0 wt %): 1; Test result (number of subject) (−) ([6]; content 1.0 wt %): 18; Degree of irritation ([6]; content 1.0 wt %): 0.15; Grade for skin irritation ([6]; content 1.0 wt %): II (Degree of irritation 0.11-0.3: Grade II (weakly stimulated))
O=C(O)CN(CCN(CCN(CC(=O)O)CC(=O)O)CC(=O)O)CCN(CC(=O)O)CC(=O)O [Embodiment 1, 3,6,9,12-tetrakis(carboxymethyl)-3,6,9,12-tetraazatetradecanedioic Acid] | 91 | ≤5 | 74 | 48 | 186 | 101 | 206 | 112 | 229 | 0.170 | 0 | 0.305 | 180 | 79 | 193 | 84 | 205 | 192 | 50 | 200 | Arsenic (As) Adsorption amount ([4]; content 2.0% aqueous solution): 53 ppm; Arsenic (As) Adsorption rate ([4]; content 2.0%): 212%; Test result (number of subject) (+) ([6]; content 0.1 wt %): 0; Test result (number of subject) (++) ([6]; content 0.1 wt %): 0; Test result (number of subject) (±) ([6]; content 0.1 wt %): 0; Test result (number of subject) (−) ([6]; content 0.1 wt %): 20; Degree of irritation ([6]; content 0.1 wt %): 0; Grade for skin irritation ([6]; content 0.1 wt %): I (Degree of irritation 0-0.1: Grade I (unstimulated)); Test result (number of subject) (+) ([6]; content 0.5 wt %): 0; Test result (number of subject) (++) ([6]; content 0.5 wt %): 0; Test result (number of subject) (±) ([6]; content 0.5 wt %): 1; Test result (number of subject) (−) ([6]; content 0.5 wt %): 19; Degree of irritation ([6]; content 0.5 wt %): 0.05; Grade for skin irritation ([6]; content 0.5 wt %): I (Degree of irritation 0-0.1: Grade I (unstimulated)); Test result (number of subject) (+) ([6]; content 1.0 wt %): 0; Test result (number of subject) (++) ([6]; content 1.0 wt %): 0; Test result (number of subject) (±) ([6]; content 1.0 wt %): 4; Test result (number of subject) (−) ([6]; content 1.0 wt %): 16; Degree of irritation ([6]; content 1.0 wt %): 0.20; Grade for skin irritation ([6]; content 1.0 wt %): II (Degree of irritation 0.11-0.3: Grade II (weakly stimulated))
O=C(O)c1ccc(N(CCN(CCN(c2ccc(C(=O)O)cc2)c2ccc(C(=O)O)cc2)c2ccc(C(=O)O)cc2)CCN(c2ccc(C(=O)O)cc2)c2ccc(C(=O)O)cc2)cc1 [Embodiment 2, 4,4′,4″,4′″-(((ethane-1,2-diylbis((4-carboxyphenyl)azanediyl))bis(ethane-2,1-diyl))bis(azanetriyl))tetrabenzoic Acid] | 94 | ≤5 | 75 | 48 | 192 | 96 | 196 | 103 | 210 | 0.168 | 0 | 0.305 | 183 | 86 | 210 | 88 | 215 | 192 | 49 | 196 | Arsenic (As) Adsorption amount ([4]; content 2.0% aqueous solution): 53 ppm; Arsenic (As) Adsorption rate ([4]; content 2.0%): 212%; Test result (number of subject) (+) ([6]; content 0.1 wt %): 0; Test result (number of subject) (++) ([6]; content 0.1 wt %): 0; Test result (number of subject) (±) ([6]; content 0.1 wt %): 0; Test result (number of subject) (−) ([6]; content 0.1 wt %): 20; Degree of irritation ([6]; content 0.1 wt %): 0; Grade for skin irritation ([6]; content 0.1 wt %): I (Degree of irritation 0-0.1: Grade I (unstimulated)); Test result (number of subject) (+) ([6]; content 0.5 wt %): 0; Test result (number of subject) (++) ([6]; content 0.5 wt %): 0; Test result (number of subject) (±) ([6]; content 0.5 wt %): 0; Test result (number of subject) (−) ([6]; content 0.5 wt %): 20; Degree of irritation ([6]; content 0.5 wt %): 0; Grade for skin irritation ([6]; content 0.5 wt %): I (Degree of irritation 0-0.1: Grade I (unstimulated)); Test result (number of subject) (+) ([6]; content 1.0 wt %): 0; Test result (number of subject) (++) ([6]; content 1.0 wt %): 0; Test result (number of subject) (±) ([6]; content 1.0 wt %): 1; Test result (number of subject) (−) ([6]; content 1.0 wt %): 19; Degree of irritation ([6]; content 1.0 wt %): 0.05; Grade for skin irritation ([6]; content 1.0 wt %): I (Degree of irritation 0-0.1: Grade I (unstimulated))

Source: patent publication US20210207064A1, “COMPOUND FOR RESTORING CONTAMINATED SOIL OR CONTAMINATED WATER” (FNG RESEARCH CO., LTD., priority 2018, published 2021)
